Assay results as given in US7511145B2 (Genelabs Technologies, Inc., priority 2003, dated 2009).

Target: T1, HCV-NS5b (Hepatitis C virus genotype 1b, UniProt Q9WMX2)
T1 construct: (His)6 (C); made in house; host or cells: XL-1 cells (E. coli), IPTG-inducible plasmid, nickel-NTA purification
Experiment: HCV-NS5b enzyme assay (incorporation of radiolabeled UTP)
Format: biochemical
Settings: for inhibition at 100 µM: read-out: % inh@100, enzyme inhibition at compound concentration of 100 uM
Summary of the method: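 Percent inhibition, background-corrected against uninhibited control, was measured at 100 and 33 uM compound. Incorporation of [3H]-UTP (10 μM each NTP) into biotinylated HCV-template RNA, 37° C for 2 h, pH 7.5, scintillation proximity. Enzyme: C-terminally truncated (21 aa), His6-tagged NS5b from XL-1.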

[1] = enzyme inhibition at compound concentration of 33 uM

| SMILES | inhibition at 33 µM [1] [%] | inhibition at 100 µM [%] | % inh@33 (enzyme inhibition at compound concentration of 33 uM, 33 µM) [%] | % inh@100 (enzyme inhibition at compound concentration of 100 uM, 100 µM) [%] |
| --- | --- | --- | --- | --- |
| CC[C@H](C)[C@H](NC(=O)c1ccc2c(c1)nc(-c1ccc3nc(-c4ccccc4)cnc3c1)n2C1CCCCC1)C(=O)O [Compound 249, 2-{[1-Cyclohexyl-2-(2-phenyl-quinoxalin-6-yl)-1H-benzoimidazole-5-carbonyl]-amino}-3-methyl-pentanoic acid] | 94.5 | 97.2 |  |  |
| COc1ccc(-c2ccc(Cl)cc2)c(-c2ccc3cc(-c4[nH]c5cc(C(=O)O)ccc5c4C4CCCCC4)ccc3n2)c1 [Compound 536, 2-[2-(4′-Chloro-4-methoxy-biphen-2-yl)-quinolin-6-yl]-3-cyclohexyl-1H-indole-6-carboxylic acid] | 97.5 | 98.9 |  |  |
| O=C(O)c1ccc2c(c1)nc(-c1ccc3nc(-c4cccc(OCCCN5CCCC5)c4)ccc3c1)n2C1CCCCC1 [Compound 414, 1-Cyclohexyl-2-{2-[3-(3-pyrrolidin-1-yl-propoxy)-phenyl]-quinolin-6-yl}-1H-benzoimidazole-5-carboxylic acid] | 93.4 | 96.8 |  |  |
| O=C(O)c1ccc2c(c1)nc(-c1ccc3nc(-c4ccc(O)cc4O)ccc3c1)n2C1CCCCC1 [Compound 364, 1-cyclohexyl-2-[2-(2,4-dihydroxy-phenyl)-quinolin-6-yl]-1H-benzoimidazole-5-carboxylic acid] | 98.6 | 101 |  |  |
| O=C(N[C@@H](Cc1c[nH]c2ccc(O)cc12)C(=O)O)c1ccc2c(c1)nc(-c1ccc3ncc(-c4ccccc4)cc3c1)n2C1CCCCC1 [Compound 238, 2-{[1-Cyclohexyl-2-(3-phenyl-quinolin-6-yl)-1H-benzoimidazole-5-carbonyl]-amino}-3-(5-hydroxy-1H-indol-3-yl)-propionic acid] | 97.6 | 98.4 |  |  |
| O=C(N[C@@H](CC1CCCCC1)C(=O)O)c1ccc2c(c1)nc(-c1ccc3nc(-c4ccccc4)cnc3c1)n2C1CCCCC1 [Compound 242, 3-Cyclohexyl-2-{[1-cyclohexyl-2-(2-phenyl-quinoxalin-6-yl)-1H-benzoimidazole-5-carbonyl]-amino}-propionic acid] | 97.4 | 97 |  |  |
| COc1ccc(-c2ccc(Cl)cc2)c(-c2ccc3cc(-c4nc5cc(C(=O)O)ccc5n4CC4CC4)ccc3n2)c1 [Compound 531, 2-[2-(4′-chloro-4-methoxy-biphen-2-yl)-quinolin-6-yl]-1-cyclopropylmethyl-1H-benzoimidazole-5-carboxylic acid] | 100 | 99.3 |  |  |
| COc1ccc(-c2ccc(Cl)cc2)c(-c2ccc3cc(-c4nc5cc(C(=O)O)ccc5n4C4CC5CCC4C5)ccc3n2)c1 (stereo not drawn) [Compound 568, 1-bicyclo[2.2.1]hept-2-yl-2-[2-(4′-chloro-4-methoxy-biphen-2-yl)-quinolin-6-yl]1H-benzoimidazole-5-carboxylic acid] | 101 | 100 |  |  |
| O=C(O)c1ccc2c(c1)nc(-c1ccc3nc(-c4cc(O)ccc4-c4ccc(Cl)cc4)ccc3c1)n2C1CCCCC1 [Compound 500, 2-[2-(4′-Chloro-4-hydroxy-biphen-2-yl)-quinolin-6-yl]-1-cyclohexyl-1H-benzoimidazole-5-carboxylic acid] | 101 | 101 |  |  |
| O=C(O)COc1ccc(-c2ccc(Cl)cc2)c(-c2ccc3cc(-c4nc5cc(C(=O)O)ccc5n4C4CCCCC4)ccc3n2)c1 [Compound 393, 2-[2-(4-Carboxymethoxy-4′-chloro-biphen-2-yl)-quinolin-6-yl]-1-cyclohexyl-1H-benzoimidazole-5-carboxylic acid] | 97.6 | 96.9 |  |  |
| CCCN(CCC)Cc1ccc2cc(-c3nc4cc(C(=O)O)ccc4n3C3CCCCC3)ccc2n1 [Compound 489, 1-cyclohexyl-2-(2-dipropylaminomethyl-quinolin-6-yl)-1H-benzoimidazole-5-carboxylic acid] | 87 | 96 |  |  |
| Cc1cc(-c2nc3cc(C(=O)O)ccc3n2C2CCCCC2)cc2ccc(-c3ccccc3-c3ccc(Cl)cc3)nc12 [Compound 417, 2-[2-(4′-Chloro-biphen-2-yl)-8-methyl-quinolin-6-yl]-1-cyclohexyl-1H-benzoimidazole-5-carboxylic acid] | 97.8 | 98 |  |  |
| COc1ccc(-c2ccc(Cl)cc2)c(-c2ccc3cc(-c4nc5cc(C(=O)O)ccc5n4CC(C)C)ccc3n2)c1 [Compound 530, 2-[2-(4′-Chloro-4-methoxy-biphen-2-yl)-quinolin-6-yl]-1-isobutyl-1H-benzoimidazole-5-carboxylic acid] | 98.2 | 98.2 |  |  |
| COc1ccc(-c2ccc(F)cc2)c(-c2ccc3cc(-c4nc5cc(C(=O)O)ccc5n4C4CCCCC4)ccc3n2)c1 [Compound 455, 1-Cyclohexyl-2-[2-(4′-fluoro-4-methoxy-biphen-2-yl)-quinolin-6-yl]-1H-benzoimidazole-5-carboxylic acid] | 100 | 99.8 |  |  |
| COc1ccc(-c2ccc(Cl)cc2)c(-c2ccc3cc(-c4nc5cc(C(=O)O)ccc5n4C4CCC(C)CC4)ccc3n2)c1 (stereo not drawn) [Compound 547, 2-[2-(4′-chloro-4-methoxy-biphen-2-yl)-quinolin-6-yl]-1-(4-methyl-cyclohexyl)-1H-benzoimidazole-5-carboxylic acid] |  |  | 102.71 | 101.82 |
| COc1ccc(-c2ccc(CN)cc2)c(-c2ccc3cc(-c4nc5cc(C(=O)O)ccc5n4C4CCCCC4)ccc3n2)c1 [Compound 384, 2-[2-(4′-aminomethyl-4-methoxy-biphen-2-yl)-quinolin-6-yl]-1-cyclohexyl-1H-benzoimidazole-5-carboxylic acid] | 95.5 | 99.3 |  |  |
| COc1ccc(-c2ccc(F)c(Cl)c2)c(-c2ccc3cc(-c4nc5cc(C(=O)O)ccc5n4C4CCCCC4)ccc3n2)c1 [Compound 366, 2-[2-(3′-chloro-4′-fluoro-4-methoxy-biphen-2-yl)-quinolin-6-yl]-1-cyclohexyl-1H-benzoimidazole-5-carboxylic acid] | 97.6 | 99.4 |  |  |
| O=C(O)c1ccc2c(c1)nc(-c1ccc3nc(CCCO)ccc3c1)n2C1CCCCC1 [Compound 392, 1-Cyclohexyl-2-[2-(3-hydroxy-propyl)-quinolin-6-yl]-1H-benzoimidazole-5-carboxylic acid] | 83.8 | 93.5 |  |  |
| O=C(O)c1ccc2c(c1)nc(-c1ccc3nc(-c4ccccc4)cc(Oc4ccccc4)c3c1)n2C1CCCCC1 [Compound 496, 1-cyclohexyl-2-(4-phenoxy-2-phenyl-quinolin-6-yl)-1H-benzoimidazole-5-carboxylic acid] | 101 | 101 |  |  |
| CN(C)c1cc(-c2ccccc2)nc2ccc(-c3nc4cc(C(=O)O)ccc4n3C3CCCCC3)cc12 [Compound 481, 1-cyclohexyl-2-(4-dimethylamino-2-phenyl-quinolin-6-yl)-1H-benzoimidazole-5-carboxylic acid] | 76.5 | 96.7 |  |  |
| CC(C)N(C(=O)c1ccc2cc(-c3nc4cc(C(=O)O)ccc4n3C3CCCCC3)ccc2n1)c1ccc(Cl)cc1 [Compound 550, 2-{2-[(4-Chlorophenyl)isopropylcarbamoyl]quinolin-6-yl}-1-cyclohexyl-1H-benzimidazole-5-carboxylic acid] | 99.1 | 102 |  |  |
| O=C(O)c1cnc2c(c1)nc(-c1ccc3nc(-c4cc(O)ccc4-c4ccc(Cl)cc4)ccc3c1)n2C1CCCCC1 [Compound 535, 2-[2-(4′-chloro-4-hydroxy-biphen-2-yl)-quinolin-6-yl]-3-cyclohexyl-3H-imidazo[4,5-b]pyridine-6-carboxylic acid] | 101 | 100 |  |  |
| C[C@H](NC(=O)c1ccc2c(c1)nc(-c1ccc3nc(-c4ccccc4)cnc3c1)n2C1CCCCC1)C(=O)O [Compound 310, 2-[(2-(2-phenyl-quinoxalin-6-yl)-1-cyclohexyl-1H-benzoimidazole-5-carbonyl)-amino]-propionic acid] | 83.2 | 98.3 |  |  |
| COc1cc(Br)c2oc(-c3ccc4cc(-c5nc6cc(C(=O)O)ccc6n5C5CCCCC5)ccc4n3)cc2c1 [Compound 394, 2-[2-(7-bromo-5-methoxy-benzofuran-2-yl)-quinolin-6-yl]-1-cyclohexyl-1H-benzoimidazole-5-carboxylic acid] | 98.9 | 100 |  |  |
| COc1ccc(-c2ccc(Cl)cc2)c(-c2ccc3cc(-c4nc5cc(C(=O)O)ccc5n4C4CCC(C)CC4)ccc3n2)c1 (stereo not drawn) [Compound 543, 2-[2-(4′-chloro-4-methoxy-biphen-2-yl)-quinolin-6-yl]-1-(4-methyl-cyclohexyl)-1H-benzoimidazole-5-carboxylic acid] | 102 | 102 |  |  |
| O=C(O)c1ccc2c(c1)nc(-c1ccc3nc(-c4cc[nH]c4)ccc3c1)n2C1CCCCC1 [Compound 432, 1-cyclohexyl-2-[2-(1H-pyrrol-3-yl)-quinolin-6-yl]-1H-benzoimidazole-5-carboxylic acid] | 88.9 | 96.4 |  |  |
| O=C(O)c1ccc2c(c1)nc(-c1ccc3nc(-c4ccccc4-c4ccc(Cl)cc4)c(-c4ccccc4)cc3c1)n2C1CCCCC1 [Compound 440, 2-[2-(4′-Chloro-biphen-2-yl)-3-phenyl-quinolin-6-yl]-1-cyclohexyl-1H-benzoimidazole-5-carboxylic acid] | 99.2 | 97.8 |  |  |
